≈ marks a conversion by molar mass, not a printed value. Entries after “also recorded” stand apart in the source; their conditions may differ.
Assays:
[1] = system: HFF-1 (human fibroblast cell line); experiment: Antiproliferative WST-1 assay, normal fibroblasts HFF-1 (toxicity control); type: cell-based
Procedure: (§1) Compounds were evaluated for their anticancer activity using […] cultured cell lines: SNB-19 (human glioblastoma, DSMZ—German Collection of Microorganisms and Cell Cultures, Braunschweig, Germany), C-32 (human amelanotic melanoma, ATCC—American Type Culture Collection, Manassas, VA, USA), T47D (human ductal breast epithelial tumor cell line, ATCC, Manassas, VA, USA), and HFF-1 (human fibroblast cell line, ATCC, Manassas, VA, USA). The cultured cells were kept at 37 °C and 5 % CO2. The cells were seeded (1 × 10^4 cells/well/100 μl DMEM supplemented with 10 % FCS and streptomycin and penicillin) using 96-well plates (Corning).
(§2) In recent years, tetrazolium salts have been described which can be used for the measurement of cell proliferation and viability. The tetrazolium salts are cleaved to formazan by cellular enzymes. An expansion in the number of viable cells results in an increase in the overall activity of mitochondrial dehydrogenases in the sample. This augmentation in enzyme activity leads to an increase in the amount of formazan dye formed, which directly correlates with the number of metabolically active cells in the culture. The formazan dye produced by metabolically active cells is quantified by a scanning ELISA reader by measuring the absorbance of the dye solution at appropriate wavelengths (λ = 420–480 nm with a reference wavelength λ = 600 nm).
(§3) Antiproliferative effect of compounds was determined using the Cell Proliferation Reagent WST-1 assay (Roche Diagnostics, Mannheim, Germany). After exposure to tested compounds (at concentrations between 0 and 100 μg/ml) for 72 h, cells were incubated with WST-1 (10 μl) for 1 h, and the absorbance of the samples against a background control was read at 450 nm using with a reference wavelength λ = 600 nm a microplate reader. Results are expressed as means of at least two independent experiments performed in triplicate.

[2] = system: T47D (human ductal breast epithelial tumor cell line); experiment: Antiproliferative WST-1 assay, breast tumor T47D; type: cell-based; settings: T47D cells; for EC50: Homo sapiens, read-out: Antiproliferative activity EC50 T47-D
Procedure: as §1, §2, §3

[3] = system: C-32 (human amelanotic melanoma); experiment: Antiproliferative WST-1 assay, melanoma C-32; type: cell-based; settings: C-32 cells; for EC50: Homo sapiens, C32
Procedure: as §1, §2, §3

[4] = system: SNB-19 (human glioblastoma); experiment: Antiproliferative WST-1 assay, glioblastoma SNB-19; type: cell-based; settings: for EC50: Homo sapiens, SNB-19, 72 h, read-out: Antiproliferative activity EC50 SBN-19; for EC50 / Activity against SNB-19 cell line (in words) / Antiproliferative activity EC50 SBN-19: SNB-19 cells; for EC50 / Antiproliferative activity EC50 SBN-19: 72 h exposure, WST-1; for Activity against SNB-19 cell line (in words): compared with azathioprine
Procedure: as §1, §2, §3

[5] = normal human fibroblasts HFF-1, 72 h exposure, WST-1

For `Cn1cnc([N+](=O)[O-])c1Sc1nc(Cl)nc2ncn(C)c12` [Compound 3a], the EC50 [1, 5] was 34.9 µg/mL (≈ 107 µM), the EC50 ([2]; 72 h exposure, WST-1) was > 50 µg/mL and the “Activity against C-32 cell line (in words)” value [3] was “more active than azathioprine; also recorded: good activity”. The EC50 ([3]; 72 h exposure, WST-1) was 12.8 µg/mL (≈ 39.3 µM), the EC50 [4] was 30.4 µg/mL (≈ 93.3 µM) and the “Activity against SNB-19 cell line (in words)” value [4] was “more active than azathioprine”.
In the case of `C=CCSc1nc(Sc2c([N+](=O)[O-])ncn2C)nc2ncn(C)c12` [Compound 2b], the EC50 [1, 5] is reported as > 50 µg/mL, the EC50 ([2]; 72 h exposure, WST-1) is reported as 49.6 µg/mL (≈ 136 µM) and the “Activity against C-32 cell line (in words)” value [3] is reported as “more active than azathioprine”. The EC50 ([3]; 72 h exposure, WST-1) was 35.3 µg/mL (≈ 97.2 µM), the EC50 [4] was 33.3 µg/mL (≈ 91.5 µM) and the “Activity against SNB-19 cell line (in words)” value [4] was “more active than azathioprine”.
In the case of `Cn1cnc2nc(S(N)(=O)=O)nc(S(N)(=O)=O)c21` [Compound 8d, 7-Methyl-2,6-purinedisulfonamide], the EC50 [1, 5] is reported as > 50 µg/mL, the EC50 ([2]; 72 h exposure, WST-1) is reported as > 50 µg/mL and the EC50 ([3]; 72 h exposure, WST-1) is reported as > 50 µg/mL. For the same molecule, the EC50 [4] was > 50 µg/mL.
In the case of `N.N.[Cl][Pt][Cl]` [Cisplatin, reference compound], the “Antiproliferative activity EC50 HFF-1” value [1, 5] is reported as 30.00 µg/mL, the “Antiproliferative activity EC50 T47-D” value ([2]; 72 h exposure, WST-1) is reported as 8.79 µg/mL and the “Antiproliferative activity EC50 C-32” value ([3]; 72 h exposure, WST-1) is reported as 6.28 µg/mL. For the same molecule, the “Antiproliferative activity EC50 SBN-19” value [4] was 4.45 µg/mL.
For `Cn1cnc([N+](=O)[O-])c1Sc1nc(Cl)c2c(ncn2C)n1` [Compound 2a], the EC50 [1, 5] was > 50 µg/mL, the EC50 ([2]; 72 h exposure, WST-1) was 41.1 µg/mL (≈ 126 µM) and the “Activity against C-32 cell line (in words)” value [3] was “more active than azathioprine”. The EC50 ([3]; 72 h exposure, WST-1) was 21.8 µg/mL (≈ 66.8 µM), the EC50 [4] was 17.9 µg/mL (≈ 55 µM) and the “Activity against SNB-19 cell line (in words)” value [4] was “more active than azathioprine”.
`Cn1cnc2nc(SCCN3CCCC3)nc(SCCN3CCCC3)c21` [Compound 4e] gave an EC50 [1, 5] of 35.4 µg/mL (≈ 90.2 µM), an EC50 ([2]; 72 h exposure, WST-1) of 38.4 µg/mL (≈ 97.8 µM) and an EC50 ([3]; 72 h exposure, WST-1) of 27.1 µg/mL (≈ 68.9 µM). The EC50 [4] was < 10 µg/mL and the “Antiproliferative activity EC50 SBN-19” value [4] was 7.95 µg/mL.
In the case of `CSc1nc(S(N)(=O)=O)c2c(ncn2C)n1` [Compound 8c, 2-Methylthio-7-methyl-6-purinesulfonamide], the EC50 [1, 5] is reported as > 50 µg/mL, the EC50 ([2]; 72 h exposure, WST-1) is reported as > 50 µg/mL and the EC50 ([3]; 72 h exposure, WST-1) is reported as > 50 µg/mL. For the same molecule, the EC50 [4] was > 50 µg/mL.
For `CCN(CC)CCSc1nc(SCCN(CC)CC)c2c(ncn2C)n1` [Compound 4c], the EC50 [1, 5] was 40 µg/mL (≈ 101 µM), the EC50 ([2]; 72 h exposure, WST-1) was 24 µg/mL (≈ 60.5 µM) and the EC50 ([3]; 72 h exposure, WST-1) was 33.5 µg/mL (≈ 84.6 µM). The EC50 [4] was < 10 µg/mL and the “Antiproliferative activity EC50 SBN-19” value [4] was 9.82 µg/mL.
In the case of `Cn1cnc2nc(Cl)nc(SCC#CCN3CCCC3)c21` [Compound 5b, 2-chloro-6-(4-N-pyrrolidinylbut-2-ynylthio)-7-methylpurine], the “Toxicity against normal fibroblasts HFF-1 (in words)” value ([1]; HFF-1 cells) is reported as “weak active”, the EC50 [1, 5] is reported as 43.1 µg/mL (≈ 134 µM) and the EC50 ([2]; 72 h exposure, WST-1) is reported as 46 µg/mL (≈ 143 µM). For the same molecule, the “Activity against T47D cell line (in words)” value [2] was “weak active”, the melting point was 129 to 130 °C and the EC50 ([3]; 72 h exposure, WST-1) was 7.58 µg/mL (≈ 23.6 µM). The EC50 [4] was 5 µg/mL (≈ 15.5 µM).
In the case of `CN(C)CCCSc1nc(Cl)nc2ncn(C)c12` [Compound 4b], the EC50 [1, 5] is reported as > 50 µg/mL, the EC50 ([2]; 72 h exposure, WST-1) is reported as > 50 µg/mL and the EC50 ([3]; 72 h exposure, WST-1) is reported as > 50 µg/mL. The EC50 [4] was < 10 µg/mL and the “Antiproliferative activity EC50 SBN-19” value [4] was 8.45 µg/mL.
`Cn1cnc2nc(SCCN3CCCCC3)nc(SCCN3CCCCC3)c21` [Compound 4f] showed an EC50 [1, 5] of 45.5 µg/mL (≈ 108 µM), an EC50 ([2]; 72 h exposure, WST-1) of 32.2 µg/mL (≈ 76.7 µM) and an EC50 ([3]; 72 h exposure, WST-1) of 21.8 µg/mL (≈ 51.8 µM). For the same molecule, the EC50 [4] was < 10 µg/mL and the “Antiproliferative activity EC50 SBN-19” value [4] was 9.18 µg/mL.
For `COc1nc(S(N)(=O)=O)c2c(ncn2C)n1` [Compound 8b, 2-Methoxy-7-methyl-6-purinesulfonamide], the EC50 [1, 5] was > 50 µg/mL, the EC50 ([2]; 72 h exposure, WST-1) was > 50 µg/mL and the EC50 ([3]; 72 h exposure, WST-1) was > 50 µg/mL. For the same molecule, the EC50 [4] was 35 µg/mL (≈ 144 µM).
In the case of `Cn1cnc2nc(Cl)nc(SN)c21` [Compound 10a, 2-Chloro-7-methyl-6-purinesulfenamide], the EC50 [1, 5] is reported as > 50 µg/mL, the EC50 ([2]; 72 h exposure, WST-1) is reported as > 50 µg/mL and the EC50 ([3]; 72 h exposure, WST-1) is reported as > 50 µg/mL. For the same molecule, the EC50 [4] was > 50 µg/mL.
In the case of `Cn1cnc([N+](=O)[O-])c1Sc1nc(Sc2c([N+](=O)[O-])ncn2C)c2c(ncn2C)n1` [Compound 3d, 7-methyl-2,6-di(1-methyl-4-nitroimidazol-5-ylthio)purine], the EC50 [1, 5] is reported as > 50 µg/mL, the EC50 ([2]; 72 h exposure, WST-1) is reported as > 50 µg/mL and the EC50 ([3]; 72 h exposure, WST-1) is reported as > 50 µg/mL. For the same molecule, the EC50 [4] was > 50 µg/mL and the “Anticancer activity against tested cell lines (in words)” value ([4]; SNB-19, C-32 and T47D cell lines overall) was “inactive”.
With `CCN(CC)CCSc1nc(Cl)nc2ncn(C)c12` [Compound 4a] the EC50 [1, 5] was > 50 µg/mL, the EC50 ([2]; 72 h exposure, WST-1) was 41.3 µg/mL (≈ 138 µM) and the EC50 ([3]; 72 h exposure, WST-1) was 22.5 µg/mL (≈ 74.9 µM). For the same molecule, the EC50 [4] was 28.8 µg/mL (≈ 96 µM).
For `CN(C)CCCSc1nc(SCCCN(C)C)c2c(ncn2C)n1` [Compound 4d], the EC50 [1, 5] was > 50 µg/mL, the EC50 ([2]; 72 h exposure, WST-1) was > 50 µg/mL and the EC50 ([3]; 72 h exposure, WST-1) was > 50 µg/mL. It also gave an EC50 [4] of 36.3 µg/mL (≈ 98.4 µM).
With `Cn1cnc([N+](=O)[O-])c1Sc1ncnc2nc[nH]c12` [Azathioprine, reference compound] the EC50 [1, 5] was 55.9 µg/mL (≈ 202 µM), the EC50 ([2]; 72 h exposure, WST-1) was 39 µg/mL (≈ 141 µM) and the EC50 ([3]; 72 h exposure, WST-1) was 35.6 µg/mL (≈ 128 µM). It also gave an EC50 [4] of 37.2 µg/mL (≈ 134 µM).
In the case of `C#CCSc1nc(Cl)nc2ncn(C)c12` [Compound 5a, 2-chloro-6-(prop-2-ynylthio)-7-methylpurine], the EC50 [1, 5] is reported as 49 µg/mL (≈ 205 µM), the EC50 ([2]; 72 h exposure, WST-1) is reported as 44.3 µg/mL (≈ 186 µM) and the melting point is reported as 183 to 184 °C. For the same molecule, the EC50 ([3]; 72 h exposure, WST-1) was 35.4 µg/mL (≈ 148 µM) and the EC50 [4] was 30.9 µg/mL (≈ 130 µM).
With `COc1nc(Sc2c([N+](=O)[O-])ncn2C)c2c(ncn2C)n1` [Compound 3b] the EC50 [1, 5] was > 50 µg/mL, the EC50 ([2]; 72 h exposure, WST-1) was > 50 µg/mL and the EC50 ([3]; 72 h exposure, WST-1) was > 50 µg/mL. The EC50 [4] was > 50 µg/mL.
For `Cn1cnc2nc(Cl)nc(S(N)(=O)=O)c21` [Compound 8a, 2-Chloro-7-methyl-6-purinesulfonamide], the EC50 [1, 5] was > 50 µg/mL, the EC50 ([2]; 72 h exposure, WST-1) was > 50 µg/mL and the EC50 ([3]; 72 h exposure, WST-1) was > 50 µg/mL. For the same molecule, the EC50 [4] was > 50 µg/mL.
With `Cn1cnc2nc(SCCN3CCOCC3)nc(SCCN3CCOCC3)c21` [Compound 4g] the EC50 [1, 5] was > 50 µg/mL, the EC50 ([2]; 72 h exposure, WST-1) was > 50 µg/mL and the EC50 ([3]; 72 h exposure, WST-1) was > 50 µg/mL. The EC50 [4] was > 50 µg/mL.
With `CSc1nc(Sc2c([N+](=O)[O-])ncn2C)c2c(ncn2C)n1` [Compound 3c] the EC50 [1, 5] was > 50 µg/mL, the EC50 ([2]; 72 h exposure, WST-1) was 48.6 µg/mL (≈ 144 µM) and the EC50 ([3]; 72 h exposure, WST-1) was > 50 µg/mL. The EC50 [4] was > 50 µg/mL.

Source: PMC4491105, “Synthesis and anticancer activity of thiosubstituted purines” (Medicinal Chemistry Research, 2015)
